What was measured:
[1] = test system: leucine transporter (LeuT); experiment: LeuT stability, [3H]-Leu binding by scintillation proximity assay (SPA); format: biochemical, Aquifex aeolicus; conditions: CMC+0.2 wt %, room temperature, 12 days
Method: The ability of PSAs, PSEs or TPSs (TPS-A/E/ELs) to stabilize leucine transporter (LeuT), a membrane protein, was measured. LeuT purified by DDM was mixed with a solution containing each amphipathic compound, and the mixture was incubated at room temperature for 12 days. The activity of LeuT proteins was measured by scintillation proximity assay (SPA) using a ligand ([^3H]-Leu), and the concentration of PSAs, PSEs, TPSs or DDM was (a) CMC+0.04 wt %, or (b) CMC+0.2 wt %.
Specifically, LeuT stability measurement was performed in the following manner. According to the results of Example 6, PSA-C10, PSA-C11, PSE-C9, PSE-C11, and PSE-C13 were selected as the amphipathic compounds of PSAs and PSEs except for PSA-C9, and wild type leucine transporter (LeuT) was purified from Aquifex aeolicus using TPS-As, TPS-Es and TPS-EL, according to the method described in G. Deckert et al. (Nature 1998, 392, 353-358.). E. coli C41 (DE3) was transformed with a pET16b plasmid containing a gene construct encoding C-terminal 8×His-tagged LeuT, and thus LeuT was expressed in the form of a fusion protein having 8×His tags at the C-terminus in the transformed E. coli C41 (the expression plasmid was provided by Dr. E. Gouaux, Vollum Institute, Portland, Oreg., USA). Briefly, bacterial membranes containing LeuT were treated with 1.0 wt % DDM, and proteins were bound to Ni^2+-NTA resin (Life Technologies, Denmark). LeuT bound to the resin was eluted using a buffer solution containing 20 mM Tris-HCl (pH 8.0), 1 mM NaCl, 199 mM KCl, 0.05% DDM and 300 mM imidazole. Next, about 1.5 mg/mL of protein stock was diluted 10-fold in an equivalent buffer supplemented with TPS-As, TPS-Es, TPS-ELs, PSAs/PSEs (PSA-C10, PSA-C11, PSE-C9, PSE-C11 and PSE-C13) or DDM (control group) to a final concentration of CMC+0.04 wt % or CMC+0.2 wt % without DDM and imidazole. The protein samples were stored at room temperature and centrifuged at designated times. Protein activity was determined by measuring the degree of binding to [^3H]-Leu using scintillation proximity assay (SPA) (M. Quick et al., Proc. Natl, Acad. Sci. U.S.A. 2007, 104, 3603-3608.). Briefly, SPA was performed with 5 μL of each protein sample dissolved in a buffer containing 450 mM NaCl and each test compound. The SPA reaction was performed in the presence of 20 nM [^3H]-Leu and copper chelate (His-Tag) YSi beads (both were purchased from PerkinElmer, Denmark). The degree of binding to [^3H]-Leu was measured using a MicroBeta liquid scintillation counter (PerkinElmer).

[2] = hydrodynamic radius of micelles by dynamic light scattering (DLS); format: physicochemical; conditions: compound at 1.0 wt %
Method: Methods of measuring the radius of micelles are not particularly limited, and methods widely known in the art may be used. For example, dynamic light scattering (DLS) may be used.
(§1) Specifically, critical micellar concentrations (CMCs) were measured using hydrophobic fluorescent staining and diphenylhexatriene (DPH), and the hydrodynamic radii (Rh) of micelles formed by each compound at a concentration of 1.0 wt % were measured using dynamic light scattering (DLS). The results were compared with results obtained from an existing amphipathic molecule (detergent), DDM, and are shown in Table 1.
When measuring, each of PSAs, PSEs and TPSs was used at a concentration of 1.0 wt %.

[3] = critical micelle concentration (CMC) by hydrophobic fluorescent staining with diphenylhexatriene (DPH); format: physicochemical
From the text: Methods of measuring CMC are not particularly limited, and methods widely known in the art may be used. For example, a fluorescence staining method using diphenylhexatriene (DPH) may be used.
To characterize PSAs of Preparation Examples 1 to 3 synthesized according to the synthetic method of Example 1; PSEs of Preparation Examples 4 to 7 synthesized according to the synthetic method of Example 2; TPS-Es and TPS-ELs of Preparation Examples 8 to 14 synthesized according to the synthetic method of Example 3; and TPS-As of Preparation Examples 15 to 17 synthesized according to the synthetic method of Example 4, the critical micellar concentrations (CMCs) of PSAs, PSEs and TPSs and the hydrodynamic radii (Rh) of formed micelles were measured.
as §1

[4] = molecular target: T1, human β2 adrenergic receptor (β2AR) (Homo sapiens, UniProt P07550); experiment: β2AR activity by [3H]-dihydroalprenolol radioactive ligand binding assay; format: biochemical; conditions: 3 or 5 days at room temperature
T1 construct: Flag; made in house
Method: The membrane protein stabilizing ability of receptors (mBBr-β2ARs) solubilized in PSAs or PSEs was evaluated by measuring the binding activity of the receptors to [^3H]-dihydroalprenolol ([^3H]-DHA).
Specifically, radioactive ligand binding assay was performed as follows. β2ARs purified with 0.1 wt % DDM was concentrated to about 10 mg/mL (approximately 200 μM). β2ARs purified with DDM were used to prepare a master binding mixture containing 10 nM [^3H]-dihydroalprenolol (DHA), which was dissolved in 0.2 wt % of DDM, PSA or PSE and supplemented with 0.5 mg/mL BSA. At a concentration of 0.2 pmol, the activity of the receptors purified with the amphipathic compounds was monitored at regular intervals over a 4-day incubation period. Protein samples were incubated on ice for 2 days and then at room temperature for 2 days. Receptor activity was measured by binding assay for dissolved radioactive ligands. The receptors purified with DDM or a novel formulation (PSA-C11, PSE-C11 or PSE-C13) were incubated with 10 nM [^3H]-DHA at room temperature for 30 minutes. The mixture was loaded onto a G-50 column, a solution passed through the column was collected in 1 mL of a binding buffer (100 mM NaCl and 20 mM HEPES (pH 7.5) supplemented with 0.5 mg/mL BSA and 20×CMC amphipathic compounds), and 15 mL of a scintillation fluid was added to the solution. Receptor-bound [^3H]-DHA was measured using a scintillation counter (Beckman). Non-specific binding of [^3H]-DHA was measured by adding 1 μM alprenolol (Sigma) to the same reaction mixture. The binding degree of the receptors to [^3H]-DHA was represented by a column graph.
The ability of TPSs (TPS-As, TPS-Es and TPS-ELs) to stabilize the structures of human β2 adrenergic receptors (β2ARs) and G protein-coupled receptors (GPCRs) was measured. That is, DDM-purified receptors were diluted with a buffer solution containing only each of the TPSs without cholesteryl hemisuccinate (CHS) or a buffer solution containing CHS and DDM. The final concentration of the compounds was CMC+0.2wt %, and the binding activity of the receptors to ligands was evaluated by measuring the degree of binding of the receptors to [^3H]-dihydroalprenolol ([^3H]-DHA).
Specifically, radioactive ligand binding assay was performed as follows. β2ARs were purified with 0.1 wt % DDM (D. M. Rosenbaum et al., Science, 2007, 318, 1266-1273.) and was concentrated to about 10 mg/mL (approximately 200 μM). β2ARs purified with DDM were used to prepare a master binding mixture containing 10 nM [^3H]-dihydroalprenolol (DHA), which was dissolved in 0.2% amphipathic compounds (DDM or TPSs) and supplemented with 0.5 mg/mL BSA. The activity of the receptors purified with the amphipathic compounds was monitored at regular intervals over a 3- to 5-day incubation period. The receptors purified with DDM or TPSs were incubated with 10 nM [^3H]-DHA at room temperature for 30 minutes. The mixture was loaded onto a G-50 column, a solution passed through the column was collected in 1 mL of a binding buffer (100 mM NaCl and 20 mM HEPES (pH 7.5) supplemented with 0.5 mg/mL BSA and 20×CMC of each amphipathic compound), and 15 mL of a scintillation fluid was added to the solution. Receptor-bound [^3H]-DHA was measured using a scintillation counter (Beckman). The binding degree of the receptors to [^3H]-DHA was represented by a column graph.

T1 sequence (P07550 whole entry): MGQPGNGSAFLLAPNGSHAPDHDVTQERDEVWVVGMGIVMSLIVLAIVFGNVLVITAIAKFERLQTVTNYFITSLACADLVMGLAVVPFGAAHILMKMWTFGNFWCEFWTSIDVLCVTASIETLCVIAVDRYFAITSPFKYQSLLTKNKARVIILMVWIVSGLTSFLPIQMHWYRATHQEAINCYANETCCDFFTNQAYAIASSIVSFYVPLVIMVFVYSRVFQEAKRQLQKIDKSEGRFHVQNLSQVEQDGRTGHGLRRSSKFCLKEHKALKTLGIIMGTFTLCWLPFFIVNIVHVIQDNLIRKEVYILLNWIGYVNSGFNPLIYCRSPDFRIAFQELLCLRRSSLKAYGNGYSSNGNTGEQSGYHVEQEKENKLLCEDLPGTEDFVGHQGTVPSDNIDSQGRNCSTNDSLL

Row | SMILES | LeuT transporter activity retained after 12 days of incubation [1] [%] | Rh (nm), hydrodynamic radius of micelles [2] [nm] | CMC [3] [mM] | CMC (wt %) [3] [wt %] | long-term β2AR activity ([3H]-DHA binding) [4]
1 | CCCCCCCCCCC(CCCCCCCCCC)(CO[C@@H]1O[C@H](CO)[C@@H](O[C@H]2O[C@H](CO)[C@@H](O)[C@H](O)[C@H]2O)[C@H](O)[C@H]1O)CO[C@@H]1O[C@H](CO)[C@@H](O[C@H]2O[C@H](CO)[C@@H](O)[C@H](O)[C@H]2O)[C@H](O)[C@H]1O [MNG-3, reference compound] | 40 | – | – | – | –
2 | CCCCCCCOCC(COCCCCCCC)O[C@@H]1OC(CO[C@@H]2OC(CO)[C@@H](O)C(O)C2O)[C@@H](O[C@@H]2OC(CO)[C@@H](O)C(O)C2O)C(O[C@@H]2OC(CO)[C@@H](O)C(O)C2O)C1O[C@@H]1OC(CO)[C@@H](O)C(O)C1O (some centres unmarked) [PSE-C7] | – | 2.66 ± 0.04 | ~0.27 | ~0.0300 | –
3 | CCCCCCOCC(COCCCCCC)(COCCCCCC)CO[C@@H]1OC(CO[C@@H]2OC(CO)[C@@H](O)C(O)C2O)[C@@H](O[C@@H]2OC(CO)[C@@H](O)C(O)C2O)C(O[C@@H]2OC(CO)[C@@H](O)C(O)C2O)C1O[C@@H]1OC(CO)[C@@H](O)C(O)C1O (some centres unmarked) [TPS-E6] | – | 2.9 ± 0.05 | ~0.020 | ~0.0024 | –
4 | CCCCCCCOCC(COCCCCCCC)(COCCCCCCC)CO[C@@H]1OC(CO[C@@H]2OC(CO)[C@@H](O)C(O)C2O)[C@@H](O[C@@H]2OC(CO)[C@@H](O)C(O)C2O)C(O[C@@H]2OC(CO)[C@@H](O)C(O)C2O)C1O[C@@H]1OC(CO)[C@@H](O)C(O)C1O (some centres unmarked) [TPS-E7] | – | 13.0 ± 0.8 | ~0.012 | ~0.0015 | –
5 | CCCCCCCCOCC(COCCCCCCCC)(COCCCCCCCC)CO[C@@H]1OC(COCCCO[C@@H]2OC(CO)[C@@H](O)C(O)C2O)[C@@H](OCCCO[C@@H]2OC(CO)[C@@H](O)C(O)C2O)C(OCCCO[C@@H]2OC(CO)[C@@H](O)C(O)C2O)C1OCCCO[C@@H]1OC(CO)[C@@H](O)C(O)C1O (some centres unmarked) [TPS-E8L] | – | 4.5 ± 0.39 | ~0.006 | ~0.0009 | –
6 | CCCCCCCCCOCC(COCCCCCCCCC)(COCCCCCCCCC)CO[C@@H]1OC(COCCCO[C@@H]2OC(CO)[C@@H](O)C(O)C2O)[C@@H](OCCCO[C@@H]2OC(CO)[C@@H](O)C(O)C2O)C(OCCCO[C@@H]2OC(CO)[C@@H](O)C(O)C2O)C1OCCCO[C@@H]1OC(CO)[C@@H](O)C(O)C1O (some centres unmarked) [TPS-E9L] | – | 4.6 ± 0.18 | ~0.004 | ~0.0006 | significantly better than that of DDM

From patent US20190169218A1, “AMPHIPATHIC COMPOUND HAVING NOVEL PENTA-SACCHARIDE HYDROPHILIC GROUP AND USE THEREOF” (Industry-University Cooperation Foundation Hanyang …, priority 2016, published 2019)
